Biological target: CD33 R119A (Homo sapiens, UniProt P20138, R119A)
Experiment: surface plasmon resonance (SPR), CD33 R119A mutant
Format: binding
Design: DNA encoding D18 to H143 of human CD33; octa-histidine tag with TEV protease cleavage site (N); made in house; host or cells: E. coli BL21* (the general protein production text; the R119A protein is not described on its own)
Settings: P22 as analyte, captured CD33 R119A
Description: We next performed surface plasmon resonance (SPR) measurements on P22 binding to CD33 wild-type, and selected mutants, to obtain detailed kinetic data (see Transparent Methods). The CD33 V-set domain has a free cysteine residue (C36), which caused anomalous results in some of our SPR experiments due to disulfide-linked oligomers forming in solution.
P22 (β-D-Glucopyranoside, 2-aminoethyl O-[N-[2-(4-cyclohexyl-1H-1,2,3-triazol-1-yl)acetyl]-9-deoxy-9-[(4-hydroxy-3,5-dimethylbenzoyl)amino]-α-neuraminosyl] (2→6)-O-β-D-galactopyranosyl-(1→4)-; CAS registry number [1809735-27-0]) was synthesized as described by Paulson and co-workers (Rillahan et al., 2014). Biotinylated P22 (Figure S1C) was prepared by treatment of a solution of P22 (12 mg, 0.012 mmol) in dimethylformamide (1 mL), with DIPEA (8.6 µL, […]) followed by addition of (+)- biotin N-hydroxysuccinimide ester (4.2 mg, 0.012 mmol), the resulting reaction mixture was then stirred for 2 h at RT. After which the reaction mixture was concentrated in vacuo and purified by reverse phase, performed via preparative HPLC (Stationary phase: RP XBridge Prep C18 OBD- 5µm,19x150mm, Mobile phase: 0.25% NH4HCO3 solution in water, CH3CN) to afford Biotin-P22 (9 mg, yield 60.9%). […]

CD33 R119A, sequence (P20138 18-143 R119A): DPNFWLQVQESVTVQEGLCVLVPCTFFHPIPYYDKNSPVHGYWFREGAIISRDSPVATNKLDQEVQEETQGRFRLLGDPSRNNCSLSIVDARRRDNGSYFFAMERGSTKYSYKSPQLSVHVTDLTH

For `Cc1cc(C(=O)NC[C@@H](O)[C@@H](O)[C@@H]2O[C@@](OC[C@H]3O[C@@H](O[C@H]4[C@H](O)[C@@H](O)[C@H](OCCN)O[C@@H]4CO)[C@H](O)[C@@H](O)[C@H]3O)(C(=O)O)C[C@H](O)[C@H]2NC(=O)Cn2cc(C3CCCCC3)nn2)cc(C)c1O` [P22, β-D-Glucopyranoside, 2-aminoethyl O-[N-[2-(4-cyclohexyl-1H-1,2,3-triazol-1-yl)acetyl]-9-deoxy-9-[(4-hydroxy-3,5-dimethylbenzoyl)amino]-α-neuraminosyl] (2→6)-O-β-D-galactopyranosyl-(1→4)-], the “binding observed by SPR” value was “no binding”.
